Consider 22 compounds from patent US8846698B2, “Pyrrolo[2,3-d]pyrimidine tropomysin-related kinase inhibitors” (Pfizer Limited, priority 2011, dated 2014).

In this test the target is TRKA (Homo sapiens (Human), UniProt P04629). Description: Isolated TRK enzyme assay (HTRF KinEASE-TK), TRKA. Type of test: biochemical. Conditions: read-out: Trka enzyme (IC50). (In general: Time-resolved FRET reads energy transfer from a long-lived donor to a nearby acceptor.)
TRKA, sequence (P04629 441-796): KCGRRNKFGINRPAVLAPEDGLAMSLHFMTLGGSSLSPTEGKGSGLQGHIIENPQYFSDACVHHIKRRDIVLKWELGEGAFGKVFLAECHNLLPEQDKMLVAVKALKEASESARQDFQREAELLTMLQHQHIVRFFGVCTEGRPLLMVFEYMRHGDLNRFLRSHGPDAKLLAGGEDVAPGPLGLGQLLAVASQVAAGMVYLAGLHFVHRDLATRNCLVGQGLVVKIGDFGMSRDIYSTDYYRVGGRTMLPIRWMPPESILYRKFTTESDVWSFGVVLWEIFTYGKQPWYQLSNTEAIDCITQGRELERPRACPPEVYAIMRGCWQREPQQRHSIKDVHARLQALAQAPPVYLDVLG
Usually IC50 stands for the midpoint of a concentration-inhibition curve. With `CC(C)n1cc(C(=O)c2cncc(NC(=O)Cn3cc(C(F)(F)F)nn3)c2)c2cnc(N)nc21` [Example 240, N-{5-[(2-amino-7-isopropyl-7H-pyrrolo[2,3-d]pyrimidin-5-yl)carbonyl]pyridin-3-yl}-2-[4-(trifluoromethyl)-1H-1,2,3-triazol-1-yl]acetamide], the IC50 was 19.2 nM.
`CC(C)n1cc(C(=O)c2cncc(NC(=O)Cc3ccc(C#N)cc3)c2)c2cnc(N)nc21` [Example 241, N-{5-[(2-amino-7-isopropyl-7H-pyrrolo[2,3-d]pyrimidin-5-yl)carbonyl]pyridin-3-yl}-2-(4-cyanophenyl)acetamide]: the IC50 came out at 45.3 nM.
On to `CC(C)n1cc(C(=O)c2cncc(NC(=O)Cc3ccc(Cl)cn3)c2)c2cnc(N)nc21` [Example 242, N-{5-[(2-amino-7-isopropyl-7H-pyrrolo[2,3-d]pyrimidin-5-yl)carbonyl]pyridin-3-yl}-2-(5-chloropyridin-2-yl)acetamide], for which the 50% inhibitory concentration (IC50) worked out at 8.71 nM.
The result for `CC(C)n1cc(C(=O)c2cncc(NC(=O)Cc3ccc(F)cn3)c2)c2cnc(N)nc21` [Example 243, N-{5-[(2-amino-7-isopropyl-7H-pyrrolo[2,3-d]pyrimidin-5-yl)carbonyl]pyridin-3-yl}-2-(5-fluoropyridin-2-yl)acetamide] reads 38.4 nM; that for `CC(C)n1cc(C(=O)c2cncc(NC(=O)Cc3ccc(C(F)(F)F)cc3)c2)c2cnc(N)nc21` [Example 244, N-{5-[(2-amino-7-isopropyl-7H-pyrrolo[2,3-d]pyrimidin-5-yl)carbonyl]pyridin-3-yl}-2-[4-(trifluoromethyl)phenyl]acetamide], 4.69 nM; that for `CC(C)n1cc(C(=O)c2cncc(NC(=O)Cc3cccc(C(F)(F)F)c3)c2)c2cnc(N)nc21` [Example 245, N-{5-[(2-amino-7-isopropyl-7H-pyrrolo[2,3-d]pyrimidin-5-yl)carbonyl]pyridin-3-yl}-2-[3-(trifluoromethyl)phenyl]acetamide], 4.7 nM.
For `CC(C)n1cc(C(=O)c2cncc(NC(=O)Cc3ccc4ocnc4c3)c2)c2cnc(N)nc21` [Example 246, N-{5-[(2-amino-7-isopropyl-7H-pyrrolo[2,3-d]pyrimidin-5-yl)carbonyl]pyridin-3-yl}-2-(1,3-benzoxazol-5-yl)acetamide] the value was 35.6 nM; for `CC(C)n1cc(C(=O)c2cncc(NC(=O)Cc3cccc(S(C)(=O)=O)c3)c2)c2cnc(N)nc21` [Example 247, N-{5-[(2-amino-7-isopropyl-7H-pyrrolo[2,3-d]pyrimidin-5-yl)carbonyl]pyridin-3-yl}-2-[3-(methylsulfonyl)phenyl]acetamide], 71 nM.
The result for `CC(C)c1cn(CC(=O)Nc2cncc(C(=O)c3cn(C(C)C)c4nc(N)ncc34)c2)nn1` [Example 248, N-{5-[(2-amino-7-isopropyl-7H-pyrrolo[2,3-d]pyrimidin-5-yl)carbonyl]pyridin-3-yl}-2-(4-isopropyl-1H-1,2,3-triazol-1-yl)acetamide] reads 23.7 nM.
As to `CC(C)n1cc(C(=O)c2cncc(NC(=O)Cn3cc(C4CC4)nn3)c2)c2cnc(N)nc21` [Example 249, N-{5-[(2-amino-7-isopropyl-7H-pyrrolo[2,3-d]pyrimidin-5-yl)carbonyl]pyridin-3-yl}-2-(4-cyclopropyl-1H-1,2,3-triazol-1-yl)acetamide], the IC50 was found to be 35.8 nM.
For `CC(C)n1cc(C(=O)c2cncc(NC(=O)Cc3ccc(Cl)cc3)c2)c2cnc(N)nc21` [Example 250, N-{5-[(2-amino-7-isopropyl-7H-pyrrolo[2,3-d]pyrimidin-5-yl)carbonyl]pyridin-3-yl}-2-(4-chlorophenyl)acetamide] the value was 3.48 nM.
The result for `CC(C)n1ncc(CC(=O)Nc2cncc(C(=O)c3cn(C(C)C)c4nc(N)ncc34)c2)c1C(F)(F)F` [Example 251, N-{5-[(2-amino-7-isopropyl-7H-pyrrolo[2,3-d]pyrimidin-5-yl)carbonyl]pyridin-3-yl}-2-[1-isopropyl-5-(trifluoromethyl)-1H-pyrazol-4-yl]acetamide] reads 33.1 nM; that for `CC(C)n1cc(C(=O)c2cncc(NC(=O)Cn3ccc(C(F)(F)F)n3)c2)c2cnc(N)nc21` [Example 252, N-{5-[(2-amino-7-isopropyl-7H-pyrrolo[2,3-d]pyrimidin-5-yl)carbonyl]pyridin-3-yl}-2-[3-(trifluoromethyl)-1H-pyrazol-1-yl]acetamide], 5.18 nM; that for `CC(C)n1cc(C(=O)c2cncc(NC(=O)Cn3ccc(C4CC4)n3)c2)c2cnc(N)nc21` [Example 253, N-{5-[(2-amino-7-isopropyl-7H-pyrrolo[2,3-d]pyrimidin-5-yl)carbonyl]pyridin-3-yl}-2-(3-cyclopropyl-1H-pyrazol-1-yl)acetamide], 3.92 nM.
For `CC(C)n1cc(CC(=O)Nc2cncc(C(=O)c3cn(C(C)C)c4nc(N)ncc34)c2)c(C(F)(F)F)n1` [Example 254, N-{5-[(2-amino-7-isopropyl-7H-pyrrolo[2,3-d]pyrimidin-5-yl)carbonyl]pyridin-3-yl}-2-[1-isopropyl-3-(trifluoromethyl)-1H-pyrazol-4-yl]acetamide] the value was 52.6 nM; for `CC(C)n1cc(C(=O)c2cncc(NC(=O)Cc3ccc(C#N)cn3)c2)c2cnc(N)nc21` [Example 255, N-{5-[(2-amino-7-isopropyl-7H-pyrrolo[2,3-d]pyrimidin-5-yl)carbonyl]pyridin-3-yl}-2-(5-cyanopyridin-2-yl)acetamide], 42.7 nM.
Turning to `CC(C)(CO)n1cc(C(=O)c2cncc(NC(=O)Cc3cccc(C(F)(F)F)c3)c2)c2cnc(N)nc21` [Example 256, N-(5-{[2-amino-7-(2-hydroxy-1,1-dimethylethyl)-7H-pyrrolo[2,3-d]pyrimidin-5-yl]carbonyl}pyridin-3-yl)-2-[3-(trifluoromethyl)phenyl]acetamide], the IC50 is 1.09 nM.
For `CC(C)(CO)n1cc(C(=O)c2cncc(NC(=O)Cc3ccc4ocnc4c3)c2)c2cnc(N)nc21` [Example 257, N-(5-{[2-amino-7-(2-hydroxy-1,1-dimethylethyl)-7H-pyrrolo[2,3-d]pyrimidin-5-yl]carbonyl}pyridin-3-yl)-2-(1,3-benzoxazol-5-yl)acetamide] the value was 12.2 nM; for `CC(C)(CO)n1cc(C(=O)c2cncc(NC(=O)Cc3cccc(S(C)(=O)=O)c3)c2)c2cnc(N)nc21` [Example 258, N-(5-{[2-amino-7-(2-hydroxy-1,1-dimethylethyl)-7H-pyrrolo[2,3-d]pyrimidin-5-yl]carbonyl}pyridin-3-yl)-2-[3-(methylsulfonyl)phenyl]acetamide], 11.8 nM.
For `CC(C)(CO)n1cc(C(=O)c2cncc(NC(=O)Cc3ccc(C#N)cc3)c2)c2cnc(N)nc21` [Example 259, N-(5-{[2-amino-7-(2-hydroxy-1,1-dimethylethyl)-7H-pyrrolo[2,3-d]pyrimidin-5-yl]carbonyl}pyridin-3-yl)-2-(4-cyanophenyl)acetamide] the value was 8.62 nM.
Turning to `CC(C)n1ncc(CC(=O)Nc2cncc(C(=O)c3cn(C(C)(C)CO)c4nc(N)ncc34)c2)c1C(F)(F)F` [Example 260, N-(5-{[2-amino-7-(2-hydroxy-1,1-dimethylethyl)-7H-pyrrolo[2,3-d]pyrimidin-5-yl]carbonyl}pyridin-3-yl)-2-[1-isopropyl-5-(trifluoromethyl)-1H-pyrazol-4-yl]acetamide], the IC50 was found to be 16.8 nM.
For `CC(CO)(CO)n1cc(C(=O)c2cncc(NC(=O)Cc3ccc(C#N)c(C(F)(F)F)c3)c2)c2cncnc21` [Example 261] the value was 128 nM.
